Biological target: T1, Human FXRα Ligand Binding Domain (Homo sapiens, UniProt Q96RI1)
T1 construct: polyhistidine (pRSET-A vector) (N); made in house; host or cells: E. coli BL21 (DE3), pRSET-A vector
T1 sequence (Q96RI1 237-472 isoform Q96RI1-2): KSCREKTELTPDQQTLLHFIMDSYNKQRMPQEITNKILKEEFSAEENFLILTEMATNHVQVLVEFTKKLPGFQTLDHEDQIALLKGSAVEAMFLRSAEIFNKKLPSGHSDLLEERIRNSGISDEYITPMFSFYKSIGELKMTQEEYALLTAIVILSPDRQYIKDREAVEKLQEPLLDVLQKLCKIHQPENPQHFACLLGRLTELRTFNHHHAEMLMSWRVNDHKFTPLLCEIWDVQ
Test: FXR Cofactor Binding Assay (FXR LBD / SRC-1 peptide, time resolved fluorescence)
Conditions: FXRα LBD with biotinylated SRC-1 (LCD2, 676-700) peptide; for EC50: read-out: Activity (pEC50) (converted)
Text: Determination of a ligand mediated cofactor peptide interaction to quantify ligand binding to the nuclear receptor Farnesoid X Receptor (FXR). The method measures the ability of putative ligands to modulate the interaction between the purified bacterial expressed FXRα ligand binding domain (LBD) and a synthetic biotinylated peptide based on residues 676-700 of steroid receptor coactivator-1 (SRC-1) (LXXLL-containing domain-2 where L is the amino acid leucine and X indicates any other amino acid (LCD2), 676-700). The sequence of the SRC-1 peptide used is as published in Iannone, M. A., et al., 2001 Cytometry 44:326-337 where the N-terminus was biotinylated (B) and the C-terminus was amidated. Detection of the associated complex was measured by time resolved fluorescence (TRF). The purified LBD of FXR was labeled with biotin then mixed with stoichiometric amounts of allophycocyanin (APC) labeled streptavidin (Molecular Probes). The biotinylated peptide was then mixed with a ½ stoichiometric amount of europium labeled streptavidin (Wallac Inc). Each was then blocked with a 5 fold excess of biotin and allowed to equilibrate for 15 min. Equimolar amounts of receptor and peptide were mixed together and were allowed to equilibrate for at least 30 min prior to the addition to either a variable or constant concentrations of the sample for which the affinity is to be determined. After equilibration, the time-resolved fluorescent signal was quantitated using a fluorescent plate reader. The affinity of the test compound was estimated from a plot of fluorescence versus concentration of test compound added.
A basal level of FXR: peptide formation is observed in the absence of added ligand. Ligands that promote the complex formation induce a concentration-dependent increase in time-resolved fluorescent signal. Compounds which bind equally well to both monomeric FXR and to the FXR: peptide complex would be expected to give no change in signal, whereas ligands which bind preferentially to the monomeric receptor would be expected to induce a concentration-dependent decrease in the observed signal.
Human FXRα Ligand Binding Domain (FXRα LBD) was expressed in E. coli strain BL21 (DE3) as an amino-terminal polyhistidine tagged fusion protein. Expression was under the control of an isopropyl-13-D-thiogalactopyranoside (IPTG) inducible T7 promoter. DNA encoding this recombinant protein is subcloned into the pRSET-A expression vector (Invitrogen). The coding sequence of Human FXRα LBD was derived from Genbank accession number U 68233 (amino acids 237 to 472).
Routinely, 30-40 g cell paste (equivalent to 2-3 liters of the fermentation batch) was resuspended in 200-250 mL Tris buffered saline (TBS), pH 7.2 (25 mM Tris-hydroxymethylamino methane (Tris), 150 mM sodium chloride). Cells were lysed by passing 3 times through a French Press and cell debris was removed by centrifugation (30 minutes, 20,000×gravity, 4° C.). The cleared supernatant was filtered through course pre-filters, and TBS, pH 7.2, 500 mM imidazole was added to obtain a final imidazole concentration of 50 mM. This lysate was loaded onto a column (6×8 cm) packed with Sepharose [Ni^|| charged]Chelation resin (Pharmacia) and pre-equilibrated with TBS pH 7.2/50 mM imidazole. After washing to baseline absorbance with equilibration buffer, the column was washed with one column volume of TBS pH 7.2 containing 90 mM imidazole. FXRα LBD was eluted directly with 365 mM imidazole. Column fractions were pooled and dialyzed against TBS, pH 7.2, containing 0.5 mM EDTA and 5 mM DTT. The dialyzed protein sample was concentrated using Centri-prep 10 K (Amicon) and subjected to size exclusion, using a column (3×90 cm) packed with Sepharose S-75 resin (Pharmacia) pre-equilibrated with TBS, pH 7.2, containing 0.5 mM ethylene diamine tetraacetic acid (EDTA) and 5 mM dithiothreitol (DTT). […]

SMILES | EC50 [nM] | Activity (pEC50)
CC(C)c1onc(-c2c(Cl)cccc2Cl)c1COc1ccc(-c2ccc3nc(C(=O)O)ccc3c2)cc1 [Example 1g, 6-[4-({[3-(2,6-Dichlorophenyl)-5-(1-methylethyl)-4-isoxazolyl]methyl}oxy)phenyl]-2-quinolinecarboxylic acid] | 102 to 1000 | –
CC(C)c1onc(-c2c(Cl)cccc2Cl)c1COc1ccc(-c2ccc3nc(C(=O)O)ccc3c2)cc1 [Example 1h, Potassium 6-[4-({[3-(2,6-Dichlorophenyl)-5-(1-methylethyl)-4-isoxazolyl]methyl}oxy)phenyl]-2-quinolinecarboxylic Acid] | – | ++ (++ indicates a pEC50 6-6.99)
CC(C)c1onc(-c2c(Cl)cccc2Cl)c1COc1ccc(-c2ccc3nc(C(=O)O)ccc3c2)cc1 [Example 1i, Sodium 6-[4-({[3-(2,6-dichlorophenyl)-5-(1-methylethyl)-4-isoxazolyl]methyl}oxy)phenyl]-2-quinolinecarboxylate] | – | ++ (++ indicates a pEC50 6-6.99)
CC(C)c1onc(-c2c(Cl)cccc2Cl)c1COc1ccc(-c2ccc3cc(C(=O)O)cnc3c2)cc1 [Example 2, 7-[4-({[3-(2,6-Dichlorophenyl)-5-(1-methylethyl)-4-isoxazolyl]methyl}oxy)phenyl]-3-quinolinecarboxylic acid] | 102 to 1000 | –
CC(C)c1onc(-c2c(Cl)cccc2Cl)c1COc1ccc(-c2ccc3c(C(=O)O)cc(C(=O)O)nc3c2)cc1 [Example 3, 7-[4-({[3-(2,6-Dichlorophenyl)-5-(1-methylethyl)-4-isoxazolyl]methyl}oxy)phenyl]-2,4-quinolinedicarboxylic acid] | 102 to 1000 | –
CC(C)c1onc(-c2c(Cl)cccc2Cl)c1COc1ccc(-c2ccc3c(C(=O)O)ccnc3c2)cc1 [Example 4, 7-[4-({[3-(2,6-Dichlorophenyl)-5-(1-methylethyl)-4-isoxazolyl]methyl}oxy)phenyl]-4-quinolinecarboxylic acid] | 102 to 1000 | –
O=C(O)c1ccc2cc(-c3ccc(OCc4c(-c5c(Cl)cccc5Cl)noc4C4CCCC4)cc3)ccc2n1 [Example 6, 6-[4-({[5-Cyclopentyl-3-(2,6-dichlorophenyl)-4-isoxazolyl]methyl}oxy)phenyl]-2-quinolinecarboxylic acid] | 102 to 1000 | –
O=C(O)c1ccc2cc(-c3ccc(OCc4c(-c5c(Cl)cccc5Cl)noc4C4CCC4)cc3)ccc2n1 [Example 7, 6-[4-({[5-Cyclobutyl-3-(2,6-dichlorophenyl)-4-isoxazolyl]methyl}oxy)phenyl]-2-quinolinecarboxylic acid] | 102 to 1000 | –
O=C(O)c1ccc2cc(-c3ccc(OCc4c(-c5c(Cl)cncc5Cl)noc4C4CCC4)cc3)ccc2n1 [Example 8] | 102 to 1000 | –
O=C(O)c1cc2ccc(-c3ccc(OCc4c(-c5c(Cl)cncc5Cl)noc4C4CCC4)cc3)cc2cn1 [Example 9, 7-[4-({[5-Cyclobutyl-3-(3,5-dichloro-4-pyridinyl)-4-isoxazolyl]methyl}oxy)phenyl]-3-isoquinolinecarboxylic acid] | 102 to 1000 | –
O=C(O)c1cc2ccc(-c3ccc(OCc4c(-c5c(Cl)cccc5Cl)noc4C4CC4)cc3)cc2cn1 [Example 10, 7-[4-({[5-Cyclopropyl-3-(2,6-dichlorophenyl)-4-isoxazolyl]methyl}oxy)phenyl]-3-isoquinolinecarboxylic acid] | 102 to 1000 | –
O=C(O)c1ccc2cc(-c3ccc(OCc4c(-c5c(Cl)cccc5Cl)noc4C4CC4)cc3)ccc2n1 [Example 11, 6-[4-({[5-Cyclopropyl-3-(2,6-dichlorophenyl)-4-isoxazolyl]methyl}oxy)phenyl]-2-quinolinecarboxylic acid] | 102 to 1000 | –
O=C(O)c1ccc2cc(-c3ccc(OCc4c(-c5c(Cl)cncc5Cl)noc4C4CC4)cc3)ccc2n1 [Example 12, 6-[4-({[5-Cyclopropyl-3-(3,5-dichloro-4-pyridinyl)-4-isoxazolyl]methyl}oxy)phenyl]-2-quinolinecarboxylic acid] | 102 to 1000 | –
CC[C@H](C)c1onc(-c2c(Cl)cccc2Cl)c1COc1ccc(-c2ccc3nc(C(=O)O)ccc3c2)cc1 [Example 13, 6-{4-[({3-(2,6-Dichlorophenyl)-5-[(1S)-1-methylpropyl]-4-isoxazolyl}methyl)oxy]phenyl}-2-quinolinecarboxylic acid] | 102 to 1000 | –

Further lines, with some results ahead:

EC50 [nM] | SMILES | Activity (pEC50)
102 to 1000 | CC[C@@H](C)c1onc(-c2c(Cl)cccc2Cl)c1COc1ccc(-c2ccc3nc(C(=O)O)ccc3c2)cc1 [Example 14, 6-{4-[({3-(2,6-Dichlorophenyl)-5-[(1R)-1-methylpropyl]-4-isoxazolyl}methyl)oxy]phenyl}-2-quinolinecarboxylic acid] | –
102 to 1000 | CC(C)c1onc(-c2c(Cl)cccc2Cl)c1CCCOc1ccc(-c2ccc3nc(C(=O)O)ccc3c2)cc1 [Example 15, 6-[4-({3-[3-(2,6-Dichlorophenyl)-5-(1-methylethyl)-4-isoxazolyl]propyl}oxy)phenyl]-2-quinolinecarboxylic acid] | –
102 to 1000 | Cc1cccc(C)c1OCc1noc(C(C)C)c1COc1ccc(-c2ccc3cc(C(=O)O)ncc3c2)cc1 [Example 16, 7-[4-({[3-{[(2,6-Dimethylphenyl)oxy]methyl}-5-(1-methylethyl)-4-isoxazolyl]methyl}oxy)phenyl]-3-isoquinolinecarboxylic acid] | –
102 to 1000 | Cc1cccc(C)c1OCc1noc(C2CCC2)c1COc1ccc(-c2ccc3cc(C(=O)O)ncc3c2)cc1 [Example 17, 7-(4-{[(5-Cyclobutyl-3-{[(2,6-dimethylphenyl)oxy]methyl}-4-isoxazolyl)methyl]oxy}phenyl)-3-isoquinolinecarboxylic acid] | –
102 to 1000 | Cc1cccc(C)c1OCc1noc(C(C)C)c1COc1ccc(-c2ccc3nc(C(=O)O)ccc3c2)cc1 [Example 18, 6-[4-({[3-{[(2,6-Dimethylphenyl)oxy]methyl}-5-(1-methylethyl)-4-isoxazolyl]methyl}oxy)phenyl]-2-quinolinecarboxylic acid] | –
102 to 1000 | CC(C)c1onc(COc2c(F)cc(F)cc2F)c1COc1ccc(-c2ccc3nc(C(=O)O)ccc3c2)cc1 [Example 19, 6-(4-{[(5-(1-Methylethyl)-3-{[(2,4,6-trifluorophenyl)oxy]methyl}-4-isoxazolyl)methyl]oxy}phenyl)-2-quinolinecarboxylic acid] | –
102 to 1000 | CC(C)c1onc(COc2c(Cl)cccc2Cl)c1COc1ccc(-c2ccc3nc(C(=O)O)ccc3c2)cc1 [Example 20, 6-[4-({[3-{[(2,6-Dichlorophenyl)oxy]methyl}-5-(1-methylethyl)-4-isoxazolyl]methyl}oxy)phenyl]-2-quinolinecarboxylic acid] | –
102 to 1000 | CC(C)c1onc(CNc2c(Cl)cccc2Cl)c1COc1ccc(-c2ccc3nc(C(=O)O)ccc3c2)cc1 [Example 21, 6-[4-({[3-{[(2,6-Dichlorophenyl)amino]methyl}-5-(1-methylethyl)-4-isoxazolyl]methyl}oxy)phenyl]-2-quinolinecarboxylic acid] | –
102 to 1000 | CC(C)c1onc(CSc2c(Cl)cccc2Cl)c1COc1ccc(-c2ccc3nc(C(=O)O)ccc3c2)cc1 [Example 22, 6-[4-({[3-{[(2,6-Dichlorophenyl)thio]methyl}-5-(1-methylethyl)-4-isoxazolyl]methyl}oxy)phenyl]-2-quinolinecarboxylic acid] | –

From patent publication US20100120775A1, “Farnesoid X Receptor Agonists” (SMITHKLINE BEECHAM CORPORATION, priority 2006, published 2010)
